[invAb] = inverted abasic unit; m = 2'-O-methyl; r = 2'-OH (RNA); f = 2'-fluoro
What was measured:
[1] = system: CTGF mRNA; assay: CTGF mRNA knockdown (Taqman RT-PCR) after siNA transfection of human NHLF cells; format: cell-based; conditions: 10 nM siNA, 24 hrs, average of 3 experiments, vs non-targeting control
Protocol: NHLF (Normal human lung fibroblasts; Lonza cat# CC-2512): Cells were cultured at 37° C. in the presence of 5% CO2 and grown in Fibroblast Basal Medium (Lonza cat# CC-3132) supplemented with 2% FBS and growth factors (provided with the kit) and 100 μg/mL of streptomycin and 100 U/mL penicillin.
(§1) Cells were plated in all wells of a tissue-culture treated, 96-well plate at a final count of 5000 cells/well in […], of the appropriate culture media. The cells were cultured for 24 hours after plating at 37° C. in the presence of 5% CO2.
(§2) After 24 hours, complexes containing siNA and RNAiMax were created as follows: A solution of RNAiMax diluted 33-fold in OPTI-MEM was prepared. In parallel, solutions of the siNAs for testing were prepared to a final concentration of 120 nM in OPTI-MEM. After incubation of RNAiMax/OPTI-MEM solution at room temperature for 5 min, an equal volume of the siNA solution and the RNAiMax solution were added together for each of the siNAs.
(§3) This solution was incubated at room temperature for 20 minutes. After incubation, 20 uL of the solution was added to each of the relevant wells. The final concentration of siNA in each well was 10 nM and the final volume of RNAiMax in each well was 0.3 ul.
(§4) The time of incubation with the RNAiMax-siNA complexes was 24 hours and there was no change in media between transfection and harvesting, unless otherwise indicated.
(§5) RNA was extracted from a 96-well plate using the TaqMan® Gene Expression Cells-to-CT™ Kit (Cat# 4399002) with a modified protocol. Briefly, a 60 uL (1 plate) or 110 uL (2 plates) of the Lysis Solution with DNase I was dispensed into each well of the Lysis Buffer Plate (twin.tec full skirt plate). The lysis buffer and stop plates were stored at 4° C. until the cells were washed.
(§6) The plate was spun at 1100 rpm for 5 minutes. The culture medium was aspirated and discarded from the wells of the culture plate. The lysis was performed automatically using a BioMek FX instrument and method. After the Biomek method was completed, the lysis plate was incubated for 2 min. at room temperature. The lysis plate can be stored for 2 hours at 4° C., or at −20° C. or −80° C. for two months.
(§7) Each well of the reverse transcription plate required 10 uL of 2× reverse transcriptase Buffer, 1 uL of 20× reverse transcription enzyme and 2 uL of nuclease-free water. The reverse transcription master mix was prepared by mixing 2× reverse transcription buffer, 20× reverse transcription enzyme mix, and nuclease-free water. 13 uL of the reverse transcription master mix was dispensed into each well of the reverse transcription plate (semi-skirted). A separate reverse transcription plate was prepared for each cell plate. The plate was loaded onto a Biomek NX or Biomek FX Dual -96 and the Biomek method was run. The program is programmed to automatically added 7 uL of lysate from the cell lysis procedure described above into each well of the reverse transcription plate. The plate is sealed and spun on a centrifuge (1000 rpm for 30 seconds) to settle the contents to the bottom of the reverse transcription plate. The plate is placed in a thermocycler at 37° C. for 60 min, 95° C. for 5 min, and 4° C. until the plate is removed from the thermocycler. Upon removal, if not used immediately, the plate was frozen at −20° C.
(§8) A series of probes and primers were used to detect the various mRNA transcripts of the genes of β-Actin (human cell line only), and of CTGF and GAPDH in mouse and human cell lines. All Taqman probes and primers for the experiments here-in described were supplied as pre-validated sets by Applied Biosystems, Inc. (see Table 3).
The assays were performed on an ABI 7900 instrument, according to the manufacturer's instructions. A TaqMan Gene Expression Master Mix (provided in the Cells-to-CT™, Applied Biosystems, Cat # 4399002) was used. The PCR reactions were carried out at 50° C. for 2 min, 95° C. for 20 min followed by 40 cycles at 95° C. for 15 secs and 60° C. for 1 min. […]

[2] = system: CTGF mRNA; assay: CTGF mRNA knockdown (Taqman RT-PCR) after siNA transfection of mouse NIH 3T3 cells; format: cell-based; conditions: mouse NIH3T3 cells, 10 nM siNA, 24 hrs, average of 3 experiments, vs non-targeting control
Protocol: NIH 3T3 (mouse; ATCC cat# CRL-1658): Cells were cultured at 37° C. in the presence of 5% CO2 and grown in Dulbecco's modified Eagle's medium (DMEM) with 4 mM L-glutamine adjusted to contain 1.5 g/L sodium bicarbonate and 4.5 g/L glucose and supplemented with fetal bovine serum at a final concentration of 10%, 100 μg/mL of streptomycin, and 100 U/mL penicillin.
as §1, §2, §3, §4, §5, §6, §7, §8
The assays were performed on an ABI 7900 instrument, according to the manufacturer's instructions. A TaqMan Gene Expression Master Mix (provided in the Cells-to-CT™, Applied Biosystems, Cat # 4399002) was used. […]

| Substance | % KD Human [1] [%] | % KD Mouse [2] [%] |
| --- | --- | --- |
| 48041-DC: siNA duplex; sense SEQ ID NO: 47 B GAuucccAcccAAuucAAA TTB; antisense SEQ ID NO: 48 UUUGAAuuGGGuGGGAAucUU (sense GAUUCCCACCCAAUUCAAATT; antisense UUUGAAUUGGGUGGGAAUCUU; sense: DNA at AGT, 2'-fluoro at CU, [invAb] at 5' end, 3' end, backbone not given here; antisense: sugars from the 5' end rrrmmmffmmmfmmmmmffmm, backbone not given here) | 73±4 | 13 ± 3 |
| 48062-DC: siNA duplex; sense SEQ ID NO: 89 B ccAcucuGccAGuGGAGuu TTB; antisense SEQ ID NO: 90 AACuccAcuGGcAGAGuGGUU (sense CCACUCUGCCAGUGGAGUUTT; antisense AACUCCACUGGCAGAGUGGUU; sense: DNA at AGT, 2'-fluoro at CU, [invAb] at 5' end, 3' end, backbone not given here; antisense: sugars from the 5' end rrrfffmffmmfmmmmfmmmm, backbone not given here) | −1 ± 18 | 12 ± 2 |
| 48054-DC: siNA duplex; sense SEQ ID NO: 73 B GAcuuGAcAGuGGAAcuAc TTB; antisense SEQ ID NO: 74 GUAGuuccAcuGucAAGucUU (sense GACUUGACAGUGGAACUACTT; antisense GUAGUUCCACUGUCAAGUCUU; sense: DNA at AGT, 2'-fluoro at CU, [invAb] at 5' end, 3' end, backbone not given here; antisense: sugars from the 5' end rrrmffffmffmffmmmffmm, backbone not given here) | 70 ± 5 | 17 ± 3 |
| 48058-DC: siNA duplex; sense SEQ ID NO: 81 B cAGuGGAAcuAcAuuAGuA TTB; antisense SEQ ID NO: 82 UACuAAuGuAGuuccAcuGUU (sense CAGUGGAACUACAUUAGUATT; antisense UACUAAUGUAGUUCCACUGUU; sense: DNA at AGT, 2'-fluoro at CU, [invAb] at 5' end, 3' end, backbone not given here; antisense: sugars from the 5' end rrrfmmfmfrmffffmffmmm, backbone not given here) | 79 ± 3 | 17 ± 3 |
| 48075-DC: siNA duplex; sense SEQ ID NO: 115 B ccucAGAcAcuGGuuucGA TTB; antisense SEQ ID NO: 116 UCGAAAccAGuGucuGAGGUU (sense CCUCAGACACUGGUUUCGATT; antisense UCGAAACCAGUGUCUGAGGUU; sense: DNA at AGT, 2'-fluoro at CU, [invAb] at 5' end, 3' end, backbone not given here; antisense: sugars from the 5' end rrrmmmffmmfmfffmmmmmm, backbone not given here) | 36 ± 9 | 69 ± 2 |
| 48039-DC: siNA duplex; sense SEQ ID NO: 43 B ccuAucAAGuuuGAGcuuu TTB; antisense SEQ ID NO: 44 AAAGcucAAAcuuGAuAGGUU | 81 ± 3 | 21±7 |
| 48078-DC: siNA duplex; sense SEQ ID NO: 121 B GGuAcuAGcuGAGGuuAuu TTB; antisense SEQ ID NO: 122 AAUAAccucAGcuAGuAccUU (sense GGUACUAGCUGAGGUUAUUTT; antisense AAUAACCUCAGCUAGUACCUU; sense: DNA at AGT, 2'-fluoro at CU, [invAb] at 5' end, 3' end, backbone not given here; antisense: sugars from the 5' end rrrmmffffmmffmmfmffmm, backbone not given here) | 31 ± 6 | 69 ± 1 |
| 48080-DC: siNA duplex; sense SEQ ID NO: 125 B AGGAAGAuGuAcGGAGAcA TTB; antisense SEQ ID NO: 126 UGUcuccGuAcAucuuccuUU (sense AGGAAGAUGUACGGAGACATT; antisense UGUCUCCGUACAUCUUCCUUU; sense: DNA at AGT, 2'-fluoro at CU, [invAb] at 5' end, 3' end, backbone not given here; antisense: sugars from the 5' end rrrffffmfmfmfffffffmm, backbone not given here) | 71 ± 2 | 56 ± 2 |
| 48066-DC: siNA duplex; sense SEQ ID NO: 97 B AcAGuuuAcAcuuGAcAGu TTB; antisense SEQ ID NO: 98 ACUGucAAGuGuAAAcuGuUU (sense ACAGUUUACACUUGACAGUTT; antisense ACUGUCAAGUGUAAACUGUUU; sense: DNA at AGT, 2'-fluoro at CU, [invAb] at 5' end, 3' end, backbone not given here; antisense: sugars from the 5' end rrrmffmmmfmfmmmffmfmm, backbone not given here) | 17 ± 7 | 80 ± 1 |
| 48069-DC: siNA duplex; sense SEQ ID NO: 103 B AGuGcAuccGGAcAccuAA TTB; antisense SEQ ID NO: 104 UUAGGuGuccGGAuGcAcuUU (sense AGUGCAUCCGGACACCUAATT; antisense UUAGGUGUCCGGAUGCACUUU; sense: DNA at AGT, 2'-fluoro at CU, [invAb] at 5' end, 3' end, backbone not given here; antisense: sugars from the 5' end rrrmmfmfffmmmfmfmffmm, backbone not given here) | 45 ± 7 | 55 ± 2 |
| 48050-DC: siNA duplex; sense SEQ ID NO: 65 B cuGccuGGuccAGAccAcA TTB; antisense SEQ ID NO: 66 UGUGGucuGGAccAGGcAGUU (sense CUGCCUGGUCCAGACCACATT; antisense UGUGGUCUGGACCAGGCAGUU; sense: DNA at AGT, 2'-fluoro at CU, [invAb] at 5' end, 3' end, backbone not given here; antisense: sugars from the 5' end rrrmmfffmmmffmmmfmmmm, backbone not given here) | 3 ± 18 | −13 ± 5 |

— patent US20120016011A1, “RNA Interference Mediated Inhibition of Connective Tissue Growth Factor (CTGF) Gene Expression Using Short Interfering Nucleic Acid (siNA)” (Merck Sharp & Dohme Corp., priority 2009, published 2012)
